Series [1] can be described thus: physchem.
Description: Ionization constant, pKa by spectrophotometry
Series [2] in a line: physchem. As to conditions: phosphate buffer, pH 9.9.
Description: Thermodynamic solubility in 50 mM aqueous phosphate buffer of pH 9.9 at 22.5 degC by HPLC analysis
Series [3] is described as follows: physchem. As to conditions: octanol/water.
Description: Lipophilicity, log P of the compound
Series [4] is described as follows: physchem. As to conditions: octanol/water, pH 7.4.
The nature of series [5]: physchem. As to conditions: aqueous solution, pH 1.
Description: Chemical stability in aqueous solution at pH 1 after 2 hrs

≈ marks a conversion by molar mass, not a printed value.

As a reminder, the pKa is the pH at which an ionisable group is half protonated. A higher pKa goes with a group that holds its proton tightly. Broadly, the solubility (thermodynamic) is the concentration in solution at equilibrium with solid. A word on the logP: it is the decadic logarithm of the partition coefficient of the neutral form, usually between octanol and water. High values mean higher lipophilicity, low ones lower lipophilicity. Broadly, the logD is the decadic logarithm of the distribution of all forms, ionised or not, between an organic phase and buffer at a given pH. One may read the amount remaining as what is left of the initial amount, in per cent. The low end stands for more turnover, the high end for less turnover.

`CN(C)CCCCc1ccc(C2(O)COC2)cc1` came in with a pKa in series [1] of 9.6. Also, the solubility (thermodynamic) in series [2] came to 300 mM (≈ 74800 µg/mL).
For the molecule `CN(C)CCCCc1ccc(C2(F)COC2)cc1`, the pKa in series [1] was determined as 9.9. For the same molecule, in series [3], the logP turned out to be 2. Also, the solubility (thermodynamic) in series [2] was 24 mM (≈ 6030 µg/mL). The logD in series [4] is -0.5.
As to `CN(C)CCCCc1ccc(C2COC2)cc1`, the pKa in series [1] came to 9.9. For the same molecule, the logP in series [3] came to 2.4. The molecule also had a thermodynamic solubility in series [2] of 17 mM (≈ 3970 µg/mL). For the same molecule, the share remaining at 2 h in series [5] was 83%. Also, the logD in series [4] is -0.1.
In series [3], `CN(C)CCCCc1ccc(C(C)(C)C)cc1` displayed a logP of 5. The molecule also gave a thermodynamic solubility in series [2] below 0.004 mM.
For `CN(C)CCCCc1ccc(C2(C)COC2)cc1`, the pKa in series [1] turned out to be 9.9. In series [3], this molecule registered a logP of 3.3. The molecule further showed a solubility (thermodynamic) in series [2] of 18 mM (≈ 4450 µg/mL). The same molecule yielded a log distribution coefficient (logD) in series [4] of 0.8.
As to `CN(C)CCC(C)(C)Cc1ccc(C(C)(C)C)cc1`, the pKa in series [1] stood at 9.5.
For the molecule `CN(C)CCC1(Cc2ccc(C(C)(C)C)cc2)COC1`, the pKa in series [1] is 9.2. Also, in series [3], the logP turned out to be 3.5. In series [2], this molecule yielded a solubility (thermodynamic) of 15 mM (≈ 4130 µg/mL). This molecule also showed a logD in series [4] of 1.7.
Molecule `CN(C)CC(C)(C)CCc1ccc(C(C)(C)C)cc1` came in with a solubility (thermodynamic) in series [2] of 0.004 mM (≈ 1.05 µg/mL).
In the case of `c1cc2c(cc1CN1CCCCC1)OCO2`, the pKa in series [1] came to 9.6. In series [2], this molecule displayed a thermodynamic solubility of 2.1 mM (≈ 460 µg/mL).
Molecule `CC1(C)CCCN1Cc1ccc2c(c1)OCO2` came in with a pKa in series [1] of 10. Further, the logP in series [3] was found to be 3.5. The thermodynamic solubility in series [2] was found to be 0.18 mM (≈ 42 µg/mL). The pH-dependent lipophilicity (logD) in series [4] worked out at 0.9.
The molecule `CCc1ccc(CCCCN(C)C)cc1` registered a pKa in series [1] of 9.9. The molecule also yielded a lipophilicity (logP) in series [3] of 4.3. Further, the solubility (thermodynamic) in series [2] amounted to 0.25 mM (≈ 51.3 µg/mL). Moreover, in series [4], the logD turned out to be 1.8.
In turn, `CN(C)CCCC(C)(C)c1ccc(C(C)(C)C)cc1` returned a solubility (thermodynamic) in series [2] below 0.004 mM.
`c1cc2c(cc1CN1CCCC1)OCO2`: the pKa in series [1] turned out to be 9.7. For the same molecule, the logP in series [3] was 2.5. This molecule also yielded a solubility (thermodynamic) in series [2] of 2.8 mM (≈ 575 µg/mL). In addition, the logD in series [4] came out at 0.2.
Take `c1cc2c(cc1CN1CCC1)OCO2`: the pKa in series [1] is 9.5. The logP in series [3] was determined as 2.1. In series [2], this molecule gave a solubility (thermodynamic) of 13 mM (≈ 2490 µg/mL). Besides, in series [4], the logD was -0.1.
Turning to `O=C1CCCCN1Cc1ccc2c(c1)OCO2`, in series [3], the log partition coefficient (logP) was 1.6. For the same molecule, in series [2], the solubility (thermodynamic) was found to be 27 mM (≈ 6300 µg/mL). For the same molecule, the log distribution coefficient (logD) in series [4] worked out at 1.6.
Molecule `c1cc2c(cc1CN1CCOCC1)OCO2` yielded a pKa in series [1] of 7. The same molecule had a logP in series [3] of 1.6. For the same molecule, the solubility (thermodynamic) in series [2] worked out at 36 mM (≈ 7970 µg/mL). The logD in series [4] worked out at 1.5.
In series [1], `CN(C)C1(CCCc2ccc(C(C)(C)C)cc2)COC1` showed a pKa of 7.2. The same molecule had a logP in series [3] of 3.6. The same molecule gave a solubility (thermodynamic) in series [2] of 0.21 mM (≈ 57.8 µg/mL). In addition, the log distribution coefficient (logD) in series [4] was 3.3.
In series [1], `CC1(C)CCN1Cc1ccc2c(c1)OCO2` came in with a pKa of 10.1. In series [3], this molecule gave a log partition coefficient (logP) of 2.8. For the same molecule, the solubility (thermodynamic) in series [2] was 1.7 mM (≈ 373 µg/mL). The molecule also had a pH-dependent lipophilicity (logD) in series [4] of 0.1.
In turn, `c1cc2c(cc1CN1CCC13COC3)OCO2` displayed a pKa in series [1] of 6.2. The molecule also gave a logP in series [3] of 1.3. The solubility (thermodynamic) in series [2] stood at 6 mM (≈ 1400 µg/mL). This molecule yielded a logD in series [4] of 1.3.
Regarding `O=C1CCN1Cc1ccc2c(c1)OCO2`, the log partition coefficient (logP) in series [3] was determined as 1.1. Besides, the thermodynamic solubility in series [2] was 10 mM (≈ 2050 µg/mL). The log distribution coefficient (logD) in series [4] is 1.1.
Take `CC1(C)CN(Cc2ccc3c(c2)OCO3)C1`: the pKa in series [1] was 9.6. Further, the logP in series [3] came to 3.1. The solubility (thermodynamic) in series [2] amounted to 1.3 mM (≈ 285 µg/mL). Also, the log distribution coefficient (logD) in series [4] was found to be 0.8.
In series [1], `c1cc2c(cc1CN1CC3(COC3)C1)OCO2` yielded a pKa of 8. Also, the logP in series [3] is 1.2. Further, the solubility (thermodynamic) in series [2] came to 100 mM (≈ 23300 µg/mL). The same molecule had a pH-dependent lipophilicity (logD) in series [4] of 0.5.
In turn, `O=C1CCCN1Cc1ccc2c(c1)OCO2` had a logP in series [3] of 1.2. This molecule gave a thermodynamic solubility in series [2] of 6.8 mM (≈ 1490 µg/mL). This molecule yielded a logD in series [4] of 1.2.
`CC1(C)CCN(Cc2ccc3c(c2)OCO3)C1`: the pKa in series [1] was determined as 9.7. Also, the logP in series [3] is 3.7. Moreover, the thermodynamic solubility in series [2] was 0.17 mM (≈ 39.7 µg/mL). The same molecule showed a logD in series [4] of 1.4.
In series [1], `c1cc2c(cc1CN1CCC3(COC3)C1)OCO2` returned a pKa of 8.1. In series [3], this molecule returned a logP of 1.5. Moreover, the thermodynamic solubility in series [2] was found to be 3 mM (≈ 742 µg/mL). In addition, the pH-dependent lipophilicity (logD) in series [4] came to 0.7.
On to `O=C1CCN(Cc2ccc3c(c2)OCO3)C1`, for which the pKa in series [1] is 6.1. Also, the logP in series [3] is -0.1. For the same molecule, the thermodynamic solubility in series [2] turned out to be 19 mM (≈ 4170 µg/mL). This molecule also yielded a logD in series [4] of 0.1.
`CC1(C)CCCCN1Cc1ccc2c(c1)OCO2` showed a pKa in series [1] of 10.2. Further, the logP in series [3] is 3.9. Further, in series [2], the thermodynamic solubility worked out at 0.12 mM (≈ 29.7 µg/mL). The logD in series [4] came to 1.1.
In the case of `c1cc2c(cc1CN1CCCCC13COC3)OCO2`, the pKa in series [1] was 7. Besides, in series [3], the logP was determined as 2.4. The molecule further came in with a thermodynamic solubility in series [2] of 2.9 mM (≈ 758 µg/mL). The logD in series [4] is 2.2.
`CC1(C)CCCN(Cc2ccc3c(c2)OCO3)C1` gave a pKa in series [1] of 9.4. This molecule also registered a log partition coefficient (logP) in series [3] of 4.3. Besides, in series [2], the thermodynamic solubility was 0.053 mM (≈ 13.1 µg/mL). Also, in series [4], the logD amounted to 2.3.
The corresponding values for `CN(C)CCCC1(c2ccc(C(C)(C)C)cc2)COC1` are 9.6, 3.9, 0.98 mM (≈ 270 µg/mL) and 1.7.
The corresponding values for `c1cc2c(cc1CN1CCCC13COC3)OCO2` are 6.3, 1.9, 8.5 mM (≈ 2100 µg/mL) and 1.9.
For `c1cc2c(cc1CN1CCCC3(COC3)C1)OCO2`, in that order: 7.9, 2.3, 7.7 mM (≈ 2010 µg/mL) and 1.7.
Molecule `O=C1CCCN(Cc2ccc3c(c2)OCO3)C1` yielded a pKa in series [1] of 7.6. Also, in series [3], the logP worked out at 0.5. The molecule further gave a thermodynamic solubility in series [2] of 9 mM (≈ 2100 µg/mL). The pH-dependent lipophilicity (logD) in series [4] was determined as 0.1.
For the molecule `CC1(C)CCN(Cc2ccc3c(c2)OCO3)CC1`, in series [1], the pKa came out at 9.5. Moreover, in series [3], the logP is 4.4. Besides, in series [2], the solubility (thermodynamic) was 0.89 mM (≈ 220 µg/mL). The molecule further registered a logD in series [4] of 2.3.
The molecule `c1cc2c(cc1CN1CCC3(CC1)COC3)OCO2` had a pKa in series [1] of 8.3. This molecule gave a logP in series [3] of 2. Moreover, the thermodynamic solubility in series [2] came out at 5.4 mM (≈ 1410 µg/mL). In addition, in series [4], the logD was 1.
`c1cc2c(cc1CN1CC3CC(C1)O3)OCO2` returned a pKa in series [1] of 7.1. The solubility (thermodynamic) in series [2] was above 11 mM.

Values taken from ChEMBL document CHEMBL1155463 (J Med Chem, 2010).
